Experimental data as given in the supplement of paper PMC6315032.

Columns and labels:
Experiment in all cases: apparent dissociation constant (pKDapp, Kinobeads competition, Cheng-Prusoff corrected) (-log10 M); higher = tighter binding
ACVR2A = ACVR2A (UniProt P27037); conditions: affinity matrix / lysate: Kinobeads, mixed HEK293/K-562/placenta lysate
CIT = CIT (UniProt O14578); conditions: affinity matrix / lysate: Kinobeads, mixed HEK293/K-562/placenta lysate
ZAK = ZAK (UniProt Q9NYL2); conditions: affinity matrix / lysate: Kinobeads, mixed HEK293/K-562/placenta lysate
LYN = LYN (UniProt P07948); conditions: affinity matrix / lysate: Kinobeads, mixed HEK293/K-562/placenta lysate
LYN, sequence (P07948 whole entry, looked up): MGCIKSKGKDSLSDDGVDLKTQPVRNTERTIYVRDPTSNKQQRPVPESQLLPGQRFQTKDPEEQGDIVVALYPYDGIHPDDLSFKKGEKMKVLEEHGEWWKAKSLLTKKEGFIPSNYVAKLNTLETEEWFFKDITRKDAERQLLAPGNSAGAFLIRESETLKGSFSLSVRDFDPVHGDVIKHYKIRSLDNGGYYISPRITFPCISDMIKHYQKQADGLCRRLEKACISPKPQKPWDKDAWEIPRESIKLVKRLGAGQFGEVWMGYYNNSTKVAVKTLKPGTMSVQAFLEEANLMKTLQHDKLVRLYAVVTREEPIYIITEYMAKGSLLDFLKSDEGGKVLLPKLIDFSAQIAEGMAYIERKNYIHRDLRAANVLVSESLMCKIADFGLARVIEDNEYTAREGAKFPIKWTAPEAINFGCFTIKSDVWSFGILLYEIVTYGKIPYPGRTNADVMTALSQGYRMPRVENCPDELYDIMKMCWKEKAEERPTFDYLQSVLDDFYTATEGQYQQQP

PIM2 = PIM2 (UniProt Q9P1W9); conditions: affinity matrix / lysate: Kinobeads, mixed HEK293/K-562/placenta lysate
PIM2, sequence (Q9P1W9 whole entry, looked up): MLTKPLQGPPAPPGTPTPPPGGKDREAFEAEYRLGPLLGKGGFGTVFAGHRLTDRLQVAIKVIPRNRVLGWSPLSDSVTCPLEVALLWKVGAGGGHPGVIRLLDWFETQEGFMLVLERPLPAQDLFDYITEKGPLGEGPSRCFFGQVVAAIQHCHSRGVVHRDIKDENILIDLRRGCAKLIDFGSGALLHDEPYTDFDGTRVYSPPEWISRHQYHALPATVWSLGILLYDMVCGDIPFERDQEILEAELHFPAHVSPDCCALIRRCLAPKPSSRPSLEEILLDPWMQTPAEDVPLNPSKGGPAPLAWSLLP

PIK3CD = biological target: T1, PIK3CD (UniProt O00329)
T1 sequence (whole entry): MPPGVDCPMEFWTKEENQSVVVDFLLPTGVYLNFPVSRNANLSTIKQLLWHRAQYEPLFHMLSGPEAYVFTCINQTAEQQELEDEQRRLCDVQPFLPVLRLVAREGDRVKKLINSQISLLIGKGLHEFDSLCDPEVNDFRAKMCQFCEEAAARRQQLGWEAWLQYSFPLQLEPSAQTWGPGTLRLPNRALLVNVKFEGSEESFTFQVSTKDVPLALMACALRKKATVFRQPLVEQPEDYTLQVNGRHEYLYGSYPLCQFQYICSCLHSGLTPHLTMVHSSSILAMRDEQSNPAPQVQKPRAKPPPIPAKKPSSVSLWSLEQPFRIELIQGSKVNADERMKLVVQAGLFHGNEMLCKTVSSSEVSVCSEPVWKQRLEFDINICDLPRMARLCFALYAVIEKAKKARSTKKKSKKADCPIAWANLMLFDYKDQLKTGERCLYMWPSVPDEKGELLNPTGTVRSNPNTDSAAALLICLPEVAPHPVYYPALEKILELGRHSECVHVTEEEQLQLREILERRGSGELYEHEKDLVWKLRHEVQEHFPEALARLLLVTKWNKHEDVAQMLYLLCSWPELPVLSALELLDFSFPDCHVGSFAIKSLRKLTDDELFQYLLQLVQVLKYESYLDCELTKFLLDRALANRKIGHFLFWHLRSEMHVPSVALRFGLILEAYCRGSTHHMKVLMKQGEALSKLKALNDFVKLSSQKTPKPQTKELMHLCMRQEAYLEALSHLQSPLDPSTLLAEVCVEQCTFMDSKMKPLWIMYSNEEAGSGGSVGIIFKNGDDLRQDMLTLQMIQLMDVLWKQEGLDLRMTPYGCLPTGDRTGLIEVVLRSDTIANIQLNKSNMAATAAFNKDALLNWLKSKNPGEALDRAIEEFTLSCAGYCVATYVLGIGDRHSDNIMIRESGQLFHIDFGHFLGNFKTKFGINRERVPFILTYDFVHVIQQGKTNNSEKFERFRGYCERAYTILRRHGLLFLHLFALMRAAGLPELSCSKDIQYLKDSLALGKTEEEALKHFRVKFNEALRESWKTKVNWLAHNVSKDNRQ

PRKCI = PRKCI (UniProt P41743); conditions: affinity matrix / lysate: Kinobeads, mixed HEK293/K-562/placenta lysate
ULK1 = ULK1 (UniProt O75385); conditions: affinity matrix / lysate: Kinobeads, mixed HEK293/K-562/placenta lysate
ULK1, sequence (O75385 whole entry): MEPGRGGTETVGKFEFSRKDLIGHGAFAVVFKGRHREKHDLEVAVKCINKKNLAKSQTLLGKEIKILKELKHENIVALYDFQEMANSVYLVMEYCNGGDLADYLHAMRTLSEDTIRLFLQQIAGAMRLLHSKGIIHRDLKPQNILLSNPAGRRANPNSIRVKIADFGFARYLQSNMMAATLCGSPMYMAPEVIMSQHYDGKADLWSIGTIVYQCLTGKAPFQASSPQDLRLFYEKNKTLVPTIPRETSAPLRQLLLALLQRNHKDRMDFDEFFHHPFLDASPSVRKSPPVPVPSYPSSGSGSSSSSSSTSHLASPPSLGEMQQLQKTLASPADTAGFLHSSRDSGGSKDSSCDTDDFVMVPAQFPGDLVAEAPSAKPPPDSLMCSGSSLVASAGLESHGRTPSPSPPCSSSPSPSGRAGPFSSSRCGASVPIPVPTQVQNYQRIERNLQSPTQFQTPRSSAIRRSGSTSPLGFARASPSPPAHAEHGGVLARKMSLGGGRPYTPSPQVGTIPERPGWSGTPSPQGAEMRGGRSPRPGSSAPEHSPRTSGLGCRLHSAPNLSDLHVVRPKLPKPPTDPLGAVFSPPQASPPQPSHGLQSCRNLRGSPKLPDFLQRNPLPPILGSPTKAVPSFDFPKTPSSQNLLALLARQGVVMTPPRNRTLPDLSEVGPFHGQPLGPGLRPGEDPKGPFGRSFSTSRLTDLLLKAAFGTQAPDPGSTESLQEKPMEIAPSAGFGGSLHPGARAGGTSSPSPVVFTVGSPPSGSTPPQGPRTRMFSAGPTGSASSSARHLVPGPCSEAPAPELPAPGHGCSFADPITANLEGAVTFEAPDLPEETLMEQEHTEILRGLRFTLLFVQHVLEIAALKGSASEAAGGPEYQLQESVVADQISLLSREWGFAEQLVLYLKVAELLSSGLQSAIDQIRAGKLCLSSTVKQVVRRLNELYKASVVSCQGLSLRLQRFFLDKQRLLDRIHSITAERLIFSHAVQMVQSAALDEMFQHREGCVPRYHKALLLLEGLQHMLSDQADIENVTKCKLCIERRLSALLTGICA

KIAA0999 = KIAA0999 (UniProt Q9Y2K2); conditions: affinity matrix / lysate: Kinobeads, mixed HEK293/K-562/placenta lysate
MKNK2 = MKNK2 (UniProt Q9HBH9); conditions: affinity matrix / lysate: Kinobeads, mixed HEK293/K-562/placenta lysate
TEK = TEK (UniProt Q02763); conditions: affinity matrix / lysate: Kinobeads, mixed HEK293/K-562/placenta lysate
MAPKAPK5 = MAPKAPK5 (UniProt Q8IW41); conditions: affinity matrix / lysate: Kinobeads, mixed HEK293/K-562/placenta lysate
MAPKAPK5, sequence (Q8IW41 whole entry): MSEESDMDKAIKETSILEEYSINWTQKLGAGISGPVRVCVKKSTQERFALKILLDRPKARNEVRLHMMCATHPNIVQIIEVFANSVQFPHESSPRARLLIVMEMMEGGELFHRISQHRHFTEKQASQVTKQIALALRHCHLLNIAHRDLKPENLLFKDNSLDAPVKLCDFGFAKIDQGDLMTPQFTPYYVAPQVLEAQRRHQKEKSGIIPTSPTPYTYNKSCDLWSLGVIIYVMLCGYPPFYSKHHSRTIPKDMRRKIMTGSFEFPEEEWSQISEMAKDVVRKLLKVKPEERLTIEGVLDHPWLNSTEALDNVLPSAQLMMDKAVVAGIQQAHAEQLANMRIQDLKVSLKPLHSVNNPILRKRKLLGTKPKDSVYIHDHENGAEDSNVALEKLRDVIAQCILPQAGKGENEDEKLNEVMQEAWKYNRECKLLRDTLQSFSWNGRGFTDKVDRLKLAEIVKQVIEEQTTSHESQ

IKBKB = IKBKB (UniProt O14920); conditions: affinity matrix / lysate: Kinobeads, mixed HEK293/K-562/placenta lysate
LIMK1 = LIMK1 (UniProt P53667); conditions: affinity matrix / lysate: Kinobeads, mixed HEK293/K-562/placenta lysate
IRAK4 = IRAK4 (UniProt Q9NWZ3); conditions: affinity matrix / lysate: Kinobeads, mixed HEK293/K-562/placenta lysate
NEK6 = NEK6 (UniProt Q9HC98); conditions: affinity matrix / lysate: Kinobeads, mixed HEK293/K-562/placenta lysate
CAMKK2 = CAMKK2 (UniProt Q96RR4); conditions: affinity matrix / lysate: Kinobeads, mixed HEK293/K-562/placenta lysate
CAMKK2, sequence (Q96RR4 whole entry, looked up): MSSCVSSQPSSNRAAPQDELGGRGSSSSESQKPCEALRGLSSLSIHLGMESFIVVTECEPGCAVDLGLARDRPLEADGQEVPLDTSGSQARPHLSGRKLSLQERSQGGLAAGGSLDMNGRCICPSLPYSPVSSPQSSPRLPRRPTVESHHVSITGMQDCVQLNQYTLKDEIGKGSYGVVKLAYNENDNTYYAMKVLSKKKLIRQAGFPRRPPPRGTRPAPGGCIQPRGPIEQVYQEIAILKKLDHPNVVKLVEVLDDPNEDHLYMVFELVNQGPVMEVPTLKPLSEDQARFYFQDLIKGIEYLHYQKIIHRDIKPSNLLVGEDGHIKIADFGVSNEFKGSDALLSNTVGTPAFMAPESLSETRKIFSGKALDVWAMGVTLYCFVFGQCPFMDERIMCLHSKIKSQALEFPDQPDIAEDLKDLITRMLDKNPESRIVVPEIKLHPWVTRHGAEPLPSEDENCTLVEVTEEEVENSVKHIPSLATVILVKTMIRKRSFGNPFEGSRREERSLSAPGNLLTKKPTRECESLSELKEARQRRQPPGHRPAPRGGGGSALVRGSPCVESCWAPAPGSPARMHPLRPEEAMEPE

CDC42BPG = CDC42BPG (UniProt Q6DT37); conditions: affinity matrix / lysate: Kinobeads, mixed HEK293/K-562/placenta lysate
CDC42BPG, sequence (Q6DT37 whole entry): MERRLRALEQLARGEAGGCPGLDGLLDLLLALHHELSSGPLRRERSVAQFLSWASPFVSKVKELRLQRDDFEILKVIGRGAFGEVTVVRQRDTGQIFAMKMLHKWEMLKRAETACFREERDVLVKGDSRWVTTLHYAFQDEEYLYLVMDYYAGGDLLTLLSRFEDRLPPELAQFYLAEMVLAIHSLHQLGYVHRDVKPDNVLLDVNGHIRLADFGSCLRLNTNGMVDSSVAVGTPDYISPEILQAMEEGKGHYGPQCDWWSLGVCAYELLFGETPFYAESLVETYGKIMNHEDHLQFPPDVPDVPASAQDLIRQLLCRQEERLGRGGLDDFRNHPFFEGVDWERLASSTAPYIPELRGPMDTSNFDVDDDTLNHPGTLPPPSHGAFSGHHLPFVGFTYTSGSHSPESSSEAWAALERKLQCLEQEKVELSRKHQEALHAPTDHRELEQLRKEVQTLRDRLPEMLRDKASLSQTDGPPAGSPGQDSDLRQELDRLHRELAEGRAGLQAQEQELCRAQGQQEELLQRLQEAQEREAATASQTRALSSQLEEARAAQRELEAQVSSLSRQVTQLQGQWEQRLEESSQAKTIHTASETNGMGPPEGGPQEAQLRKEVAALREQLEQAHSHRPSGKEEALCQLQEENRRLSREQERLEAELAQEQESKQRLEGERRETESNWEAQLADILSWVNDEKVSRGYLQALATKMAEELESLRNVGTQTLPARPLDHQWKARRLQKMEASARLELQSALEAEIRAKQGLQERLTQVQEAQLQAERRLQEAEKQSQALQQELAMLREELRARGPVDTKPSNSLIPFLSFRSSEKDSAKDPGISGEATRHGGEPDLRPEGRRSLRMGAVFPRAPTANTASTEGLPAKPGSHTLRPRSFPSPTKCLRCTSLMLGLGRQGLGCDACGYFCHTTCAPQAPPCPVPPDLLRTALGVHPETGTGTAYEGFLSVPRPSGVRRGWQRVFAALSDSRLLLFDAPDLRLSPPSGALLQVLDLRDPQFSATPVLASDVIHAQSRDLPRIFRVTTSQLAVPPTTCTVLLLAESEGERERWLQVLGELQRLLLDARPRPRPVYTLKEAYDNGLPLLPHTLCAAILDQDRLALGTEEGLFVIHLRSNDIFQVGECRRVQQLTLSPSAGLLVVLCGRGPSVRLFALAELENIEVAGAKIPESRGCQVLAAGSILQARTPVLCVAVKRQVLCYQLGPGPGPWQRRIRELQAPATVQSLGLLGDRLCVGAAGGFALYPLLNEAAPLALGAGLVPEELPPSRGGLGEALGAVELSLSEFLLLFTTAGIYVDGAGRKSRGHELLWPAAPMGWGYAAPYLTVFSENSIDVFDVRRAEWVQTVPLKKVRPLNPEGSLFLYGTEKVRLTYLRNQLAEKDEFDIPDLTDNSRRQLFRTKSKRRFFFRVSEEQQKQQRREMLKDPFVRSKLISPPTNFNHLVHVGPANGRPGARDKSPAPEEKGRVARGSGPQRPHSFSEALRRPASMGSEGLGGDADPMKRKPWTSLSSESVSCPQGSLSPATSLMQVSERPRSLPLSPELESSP

PIK3C2A = PIK3C2A (UniProt O00443); conditions: affinity matrix / lysate: Lipid Kinobeads, mixed HeLa/Jurkat/K-562 lysate
STK35 = STK35 (UniProt Q8TDR2); conditions: affinity matrix / lysate: Kinobeads, mixed HEK293/K-562/placenta lysate
STK35, sequence (Q8TDR2 whole entry): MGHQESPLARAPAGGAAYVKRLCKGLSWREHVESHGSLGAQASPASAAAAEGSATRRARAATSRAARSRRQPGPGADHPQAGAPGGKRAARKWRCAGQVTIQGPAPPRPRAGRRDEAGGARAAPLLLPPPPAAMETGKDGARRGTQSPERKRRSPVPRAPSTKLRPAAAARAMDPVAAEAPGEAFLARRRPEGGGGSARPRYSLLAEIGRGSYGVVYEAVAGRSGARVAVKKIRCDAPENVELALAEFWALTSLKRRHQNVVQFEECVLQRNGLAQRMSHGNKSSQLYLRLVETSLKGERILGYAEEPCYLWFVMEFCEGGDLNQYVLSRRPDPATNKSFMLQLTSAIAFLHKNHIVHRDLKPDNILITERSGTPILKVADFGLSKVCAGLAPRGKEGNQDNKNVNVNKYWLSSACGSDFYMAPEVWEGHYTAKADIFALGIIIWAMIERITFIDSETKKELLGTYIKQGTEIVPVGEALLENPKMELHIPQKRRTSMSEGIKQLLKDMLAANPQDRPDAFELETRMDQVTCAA

EPHB1 = EPHB1 (UniProt P54762); conditions: affinity matrix / lysate: Kinobeads, mixed HEK293/K-562/placenta lysate
LATS1 = LATS1 (UniProt O95835); conditions: affinity matrix / lysate: Kinobeads, mixed HEK293/K-562/placenta lysate
MAP4K4 = MAP4K4 (UniProt O95819); conditions: affinity matrix / lysate: Kinobeads, mixed HEK293/K-562/placenta lysate
[1] = affinity matrix / lysate: Lipid Kinobeads, mixed HeLa/Jurkat/K-562 lysate

Q: Which “apparent dissociation constant (-log10 M)” value (ACVR2A) does the source give for `COc1ccc(-c2ccc3c(N4CCOC[C@@H]4C)nc(N4CCOC[C@@H]4C)nc3n2)cc1CO` [AZD8055] here?
A: < 6

Q: And the “apparent dissociation constant (-log10 M)” value (CIT)?
A: < 6

Q: And the “apparent dissociation constant (-log10 M)” value (ZAK)?
A: < 6

Q: What about the “apparent dissociation constant (-log10 M)” value (LYN) of the same compound?
A: < 6

Q: And the “apparent dissociation constant (-log10 M)” value (PIM2)?
A: < 6

Q: And the “apparent dissociation constant (-log10 M)” value (PIK3CD; [1])?
A: 6.57

Q: And the “apparent dissociation constant (-log10 M)” value (PRKCI)?
A: < 6

Q: What about the “apparent dissociation constant (-log10 M)” value (ULK1) of the same compound?
A: < 6

Q: What about the “apparent dissociation constant (-log10 M)” value (KIAA0999) of the same compound?
A: < 6

Q: And the “apparent dissociation constant (-log10 M)” value (MKNK2)?
A: < 6

Q: And the “apparent dissociation constant (-log10 M)” value (TEK)?
A: < 6

Q: And the “apparent dissociation constant (-log10 M)” value (MAPKAPK5)?
A: < 6

Q: What about the “apparent dissociation constant (-log10 M)” value (IKBKB) of the same compound?
A: < 6

Q: And the “apparent dissociation constant (-log10 M)” value (LIMK1)?
A: < 6

Q: And the “apparent dissociation constant (-log10 M)” value (IRAK4)?
A: < 6

Q: What about the “apparent dissociation constant (-log10 M)” value (NEK6) of the same compound?
A: < 6

Q: What about the “apparent dissociation constant (-log10 M)” value (CAMKK2) of the same compound?
A: < 6

Q: And the “apparent dissociation constant (-log10 M)” value (CDC42BPG)?
A: < 6

Q: What about the “apparent dissociation constant (-log10 M)” value (PIK3C2A) of the same compound?
A: < 6

Q: And the “apparent dissociation constant (-log10 M)” value (STK35)?
A: < 6

Q: What about the “apparent dissociation constant (-log10 M)” value (EPHB1) of the same compound?
A: < 6

Q: What about the “apparent dissociation constant (-log10 M)” value (LATS1) of the same compound?
A: < 6

Q: What about the “apparent dissociation constant (-log10 M)” value (MAP4K4) of the same compound?
A: < 6

Q: `CCNC(=O)Nc1ccc(-c2nc(N3CCOC[C@@H]3C)c3c(n2)C(C)(C)S(=O)(=O)C3)cc1` [CZ415] was tested. Which “apparent dissociation constant (-log10 M)” value (ACVR2A) did it give?
A: < 6

Q: And the “apparent dissociation constant (-log10 M)” value (CIT)?
A: < 6

Q: And the “apparent dissociation constant (-log10 M)” value (ZAK)?
A: < 6

Q: What about the “apparent dissociation constant (-log10 M)” value (LYN) of the same compound?
A: < 6

Q: What about the “apparent dissociation constant (-log10 M)” value (PIM2) of the same compound?
A: < 6

Q: And the “apparent dissociation constant (-log10 M)” value (PIK3CD; affinity matrix / lysate: Kinobeads, mixed HEK293/K-562/placenta lysate)?
A: < 6

Q: What about the “apparent dissociation constant (-log10 M)” value (PIK3CD; [1]) of the same compound?
A: < 6

Q: What about the “apparent dissociation constant (-log10 M)” value (PRKCI) of the same compound?
A: < 6

Q: And the “apparent dissociation constant (-log10 M)” value (ULK1)?
A: < 6

Q: What about the “apparent dissociation constant (-log10 M)” value (KIAA0999) of the same compound?
A: < 6

Q: What about the “apparent dissociation constant (-log10 M)” value (MKNK2) of the same compound?
A: < 6

Q: And the “apparent dissociation constant (-log10 M)” value (TEK)?
A: < 6

Q: What about the “apparent dissociation constant (-log10 M)” value (MAPKAPK5) of the same compound?
A: < 6

Q: And the “apparent dissociation constant (-log10 M)” value (IKBKB)?
A: < 6

Q: And the “apparent dissociation constant (-log10 M)” value (LIMK1)?
A: < 6

Q: And the “apparent dissociation constant (-log10 M)” value (IRAK4)?
A: < 6

Q: And the “apparent dissociation constant (-log10 M)” value (NEK6)?
A: < 6

Q: What about the “apparent dissociation constant (-log10 M)” value (CAMKK2) of the same compound?
A: < 6

Q: And the “apparent dissociation constant (-log10 M)” value (CDC42BPG)?
A: < 6

Q: What about the “apparent dissociation constant (-log10 M)” value (PIK3C2A) of the same compound?
A: < 6

Q: What about the “apparent dissociation constant (-log10 M)” value (STK35) of the same compound?
A: < 6

Q: And the “apparent dissociation constant (-log10 M)” value (EPHB1)?
A: < 6

Q: What about the “apparent dissociation constant (-log10 M)” value (LATS1) of the same compound?
A: < 6

Q: And the “apparent dissociation constant (-log10 M)” value (MAP4K4)?
A: < 6
